# In US11129867B2, “Method of treating cancer cells” (priority 2017, dated 2021):
# Where a SMILES comes first, the peptide text is derived from it. The star is where a group is joined. X1 = CN(C)c1ccc2c(-c3ccc(C(=O)*)cc3C(=O)[O-])c3ccc(=[N+](C)C)cc-3oc2c1
# Assays:
# MCF7 = test: WST-8 cell viability assay, MCF7; assay type: cell-based; conditions: MCF7 (breast cancer), different concentrations, 48 hours, FIG. 3
# Procedure: (§1) Human oral squamous cell carcinoma (OSCC) cell lines, Ca922, OSC20, OECM-1, OC3, CGHNC9, HSC3, plus A549, MDA-MB-231, MCF7, Huh7, HeLa-Kyoto, Detroit 562, H520, H2170, and 293T cells were used in this study. Ca922, CGHNC9, MDA-MB-231, MCF7, Huh7, HeLa-Kyoto, Detroit 562, and 293T cells were all cultured in high-glucose Dulbecco's Modified Eagle Medium (DMEM). OSC20 and HSC3 cells were cultured in Dulbecco's Modified of Eagle's Medium/Ham's F-12 50/50 Mix (1:1). OECM-1, A549, H520, and H2170 cells were grown in RPMI-1640 medium. All culture media were supplemented with 10% fetal bovine serum (FBS) and 1% penicillin-streptomycin. OC3 cells were cultured in 1:1 DMEM/KSFM (keratinocyte serum-free medium) with supplied supplement of Bovine pituitary extract (BPE) and epidermal growth factor (EGF) followed by instruction. All the cells in this study were maintained at 37° C. in humidified atmosphere containing 5% CO2.
# (§2) WST-8 [2-(2-methoxy-4-nitrophenyl)-3-(4-nitrophenyl)-5-(2,4-disulfophenyl)-2H-tetrazolium, monosodium salt] cell viability assay
# Cells were seeded into 96 well plate and incubated at 37° C. overnight. […] The amount of formazan produced is proportional to the number of live cells and is expressed as cellular viability. […] Cell viability was measured at the absorbance of 450/655 nm wavelength by ELISA reader.
# Detroit 562 = test: WST-8 cell viability assay, Detroit 562; assay type: cell-based; conditions: Detroit 562 (pharynx cancer), different concentrations, 48 hours, FIG. 5
# Procedure: as §1, §2
# (§3) Cells were seeded into 96 well plate and incubated at 37° C. overnight. Endpoint measures of TMR-GBP or drugs were performed by water soluble tetrazolium salt (WST-8)-based colorimetric assay in triplicate which measures the metabolic conversion of WST-8 into formazan by mitochondrial dehydrogenases present in viable cells. The amount of formazan produced is proportional to the number of live cells and is expressed as cellular viability. When time was up, media were removed and supplemented with WST-8 cell viability reagent-contained cell culture medium (1:10) and incubated at 37° C. for 2 hours. Besides, three wells with WST-8-dissolved medium only (without cells) were reserved as a background control. Cell viability was measured at the absorbance of 450/655 nm wavelength by ELISA reader.
# H2170 = test: WST-8 cell viability assay, H2170; assay type: cell-based; conditions: H2170 (lung cancer), different concentrations, 48 hours, FIG. 5
# Procedure: as §1, §2, §3
# Ca922 cells = test: Annexin V staining with flow cytometry; assay type: cell-based, human; conditions: Ca922, 12.5 μM TMR-GBP, FIG. 6B
# Procedure: […] Diluted 10× Binding Buffer to 1× using distilled water. Washed cells once in PBS, then once in 1× Binding Buffer. Resuspended cells in 1× Binding Buffer at 1-5×10^6/mL. Next, added 5 μL of fluorochrome-conjugated Annexin V to 100 μL of the cell suspension. Sample was incubated 10-15 minutes at room temperature. Afterwards, washed cells in 1× Binding Buffer and resuspend in 200 μL of 1× Binding Buffer. Analyzed by flow cytometry within 4 hours, storing at 2-8° C. in the dark.
# [1] = tested on: intracellular ROS in Ca922 cells; test: DCFDA cellular ROS detection assay; assay type: cell-based, human
# Procedure: Ca922 cells were seeded in dark, clear bottom 96-well microplate with 25,000 cells per well. Cells were then labeled with 25 μM DCFDA for 45 minutes and 25 μM TMR-GBP for 6 hours. 1% H2O2 (1 hour) and 55 mM TBHP (4 hours) treatments were positive control, mimic ROS activity to oxidize DCFDA to fluorescent DCF. Cells were then analyzed on a fluorescent plate reader. Standard deviations of three independent experiments were indicated as bars.
# DCFDA Cellular ROS Detection Assay
# Seeded cells at 2.5×10^4 cells/well on a dark, clear bottom 96-well microplate and incubated in complete media with 10% FBS without phenol red. Prepared 1× Buffer by diluting 10× buffer in ddH2O and a working DCFDA solution (25 μM) by adding the appropriate volume of 20 mM DCFDA to 1× Buffer. Washed cells once in 1× Buffer and stained cells with 25 μM DCFDA for 45 minutes at 37° C. Then, washed cells once in 1× Buffer or 1×PBS. TMR-GBP, H2O2 and TBHP could be diluted in complete media with 10% FBS without phenol red. Added 100 μL/well of TMR-GBP, H2O2 (as positive control), TBHP (as positive control) and incubated for desired time period. Cells should not be washed after treatment with the TBHP or other compounds of interest. It should contain non-stained cells to determine background fluorescence. Read signal at Ex/Em: 485/535 nm by fluorescent plate reader
# [2] = tested on: Poly (ADP-ribose) polymerase (PARP); test: Western blotting of PARP cleavage; assay type: cell-based, human
# Procedure: Protein expression of Poly (ADP-ribose) polymerase (PARP) were examined in Ca922 cells treated with 25 μM TMR-GBP for 6 hours.
# (§4) Protein lysate of Ca922 cells treated with TMR-GBP 25 μM were blotted with antibodies against Caspase-3, Caspase-7, Caspase-9 and Poly (ADP-ribose) polymerase (PARP). Representative blots are shown.
# (§5) Western Blotting Analysis
# (§6) Cells were harvested by trypsion or scratch and lysed in RIPA buffer (50 mM Tris-HCl, pH 7.4, 150 mM NaCl, 0.1% SDS, 0.5% Sodium deoxycholate, 1% NP-40) supplemented with 1× protease inhibitor cocktail. Sample was incubated on ice for 30 minutes and scraped every 10 minutes. Centrifuge at 13,000 rpm at 4° C. for 15 minutes, then collect supernatant for analysis. Protein concentration was determined by Bradford assay. First, 5× Bradford assay dye reagent was diluted into […], and mixture with RIPA (as standard) or samples. Concentration was obtained by spectrophotometer measurement. Equal volume of 2× laemmli buffer containing β-ME was added into protein lysate for goal concentration. Protein samples were boiled at 100° C. for 15 minutes and resolved by 10% SDS-PAGE gel or 4%-15% gradient gel. […] Washing the membrane three times with 1×PBST for every 5 minutes, protein band was detected by modified ECL (ddH2O, […] Tris pH8.0, 200 μM p-coumaric acid, 1.25 mM luminal, 0.001% H2O2) with ImageQuant LAS 4000 digital imaging system.
# Caspase-7 = test: Western blotting of Caspase-7; assay type: cell-based, human; conditions: Ca922, 25 μM, FIG. 11B
# Procedure: as §4, §5
# as §6, with “gel. Then, transfer to PVDF membrane by 100V or 110V voltage for 1 hour.” for “gel.”
smiles,measurement,setting,value
CN(C)c1ccc2c(-c3ccc(C(=O)N[C@@H](CC(N)=O)C(=O)N[C@@H](Cc4ccc(O)cc4)C(=O)N[C@@H](CCCNC(=N)N)C(=O)N[C@@H](Cc4c[nH]c5ccccc45)C(=O)N[C@@H](CCCNC(=N)N)C(=O)N[C@@H](CS)C(=O)N[C@@H](CCCCN)C(=O)N[C@@H](CC(N)=O)C(=O)N[C@@H](CCC(N)=O)C(=O)N[C@@H](CC(N)=O)C(=O)O)cc3C(=O)[O-])c3ccc(=[N+](C)C)cc-3oc2c1 [TMR-GBP] (X1-NYRWRCKNQN-OH; N-terminus and C-terminus assumed),cell viability,MCF7,not markedly affected
same,cytotoxicity (cell viability),Detroit 562,could induce cytotoxicity
same,cytotoxicity (cell viability),H2170,could induce cytotoxicity
same,apoptosis by Annexin-V-FITC labeling,Ca922 cells,positively labeled by Annexin-V-FITC
same,increase of ROS compared with control cells,"[1]; Ca922, 25 μM, 6 hours, DCFDA, after background subtraction, FIG. 9",5 folds
same,ROS production with NAC treatment,[1]; NAC treatment in the presence of TMR-GBP,reversed by NAC treatment
same,PARP cleavage,"[2]; Ca922, 25 μM, 6 hours, FIG. 11A",induced PARP cleavage
same,PARP cleavage after calpain inhibitor,"[2]; Ca922, calpain inhibitor pretreated 30 minutes before TMR-GBP, FIG. 11D",still induced PARP cleavage
same,activation of caspase-7,Caspase-7,did not activate
